Calls of active or inactive are those of the source. No cut-off for these calls is given here.
Legend:
Calf thymus DNA [1] = assay: Binding affinity to calf thymus double stranded DNA at 10 uM by fluorescence spectrophotometer; assay type: nucleic-acid assay; settings: Bos taurus
K562 = assay: Antiproliferative activity against human K562 cells after 72 hrs by MTT assay; assay type: functional, cell-based; settings: K562, 72 h
T-24 [2] = assay: Induction of apoptosis n human T24 cells assessed as upregulation of p53 levels at 0.5 to 1 uM after 18 hrs by Western blot method; assay type: functional, cell-based
T-24 [3] = assay: Induction of reactive oxygen species generation in human T24 cells at 1 uM after 30 mins by H2DCFDA dye-based flow cytometric method; assay type: functional, cell-based
[4] = molecular target: T1, DNA topoisomerase 1 (Homo sapiens) (UniProt P11387); assay: Inhibition of human DNA topoisomerase 1 assessed as decrease in relaxation of pBR322 at <= 20 uM after 30 to 40 mins by agarose gel electrophoresis
T1 sequence (whole entry): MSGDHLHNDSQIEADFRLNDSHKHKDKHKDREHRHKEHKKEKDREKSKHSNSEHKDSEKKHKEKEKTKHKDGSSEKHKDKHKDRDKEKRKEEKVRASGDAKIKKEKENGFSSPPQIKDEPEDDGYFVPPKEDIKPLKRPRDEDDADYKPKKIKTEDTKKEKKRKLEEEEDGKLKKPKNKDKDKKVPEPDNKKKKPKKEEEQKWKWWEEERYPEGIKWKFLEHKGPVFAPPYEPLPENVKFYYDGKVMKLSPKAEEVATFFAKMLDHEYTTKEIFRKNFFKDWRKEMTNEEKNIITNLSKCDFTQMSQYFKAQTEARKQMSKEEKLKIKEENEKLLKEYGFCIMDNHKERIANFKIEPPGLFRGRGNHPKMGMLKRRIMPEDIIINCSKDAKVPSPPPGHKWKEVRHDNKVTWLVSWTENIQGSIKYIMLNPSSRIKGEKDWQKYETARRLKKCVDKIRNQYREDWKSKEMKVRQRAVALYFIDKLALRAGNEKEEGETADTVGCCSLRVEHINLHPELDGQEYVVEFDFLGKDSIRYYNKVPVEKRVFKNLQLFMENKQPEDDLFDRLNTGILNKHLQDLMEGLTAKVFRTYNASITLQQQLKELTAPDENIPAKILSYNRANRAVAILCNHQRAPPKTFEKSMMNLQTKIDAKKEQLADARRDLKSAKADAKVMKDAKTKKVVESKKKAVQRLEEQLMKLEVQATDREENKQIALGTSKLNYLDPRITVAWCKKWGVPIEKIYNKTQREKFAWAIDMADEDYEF

HCT-116 [5] = assay: Antiproliferative activity against p53 deficient human HCT116 cells after 72 hrs by MTT assay; assay type: functional, cell-based; settings: HCT-116, 72 h
T-24 [6] = assay: Induction of apoptosis n human T24 cells at 1 uM after 24 hrs by annexin V-FITC/propidium iodide staining-based flow cytometric method; assay type: functional, cell-based
[7] = molecular target: T1, DNA topoisomerase 1 (Homo sapiens); assay: Inhibition of human DNA topoisomerase 1 assessed as decrease in relaxation of pBR322 at 5 to 20 uM after 30 to 40 mins by agarose gel electrophoresis
L1210 = assay: Antiproliferative activity against mouse L1210 cells after 72 hrs by MTT assay; assay type: functional, cell-based; settings: L1210, 72 h
HeLa = assay: Antiproliferative activity against human HeLa cells after 72 hrs by MTT assay; assay type: functional, cell-based
T-24 [8] = assay: Induction of apoptosis n human T24 cells assessed as caspase-3 cleavage at 0.5 to 1 uM after 18 hrs by Western blot method; assay type: functional, cell-based
T-24 [9] = assay: Growth inhibition of human T24 cells after 72 hrs by cell impedance method; assay type: functional, cell-based; settings: T-24, 72 h
CCRF-CEM = assay: Antiproliferative activity against human CEM cells after 72 hrs by MTT assay; assay type: functional, cell-based
T-24 [10] = assay: Induction of apoptosis n human T24 cells assessed as PARP cleavage at 0.5 to 1 uM after 18 hrs by Western blot method; assay type: functional, cell-based
HCT-116 [11] = assay: Antiproliferative activity against human HCT116 cells after 72 hrs by MTT assay; assay type: functional, cell-based; settings: HCT-116, 72 h
[12] = Antiproliferative activity against human K562/4 cells after 72 hrs by MTT assay; assay type: functional, cell-based; settings: K562/4, 72 h
T-24 [13] = assay: Induction of apoptosis n human T24 cells assessed as upregulation of Bak levels at 0.5 to 1 uM after 18 hrs by Western blot method; assay type: functional, cell-based
T-24 [14] = assay: Induction of apoptosis n human T24 cells assessed as downregulation of Bcl-2 levels at 0.5 to 1 uM after 18 hrs by Western blot method; assay type: functional, cell-based
Calf thymus DNA [15] = assay: Binding affinity to calf thymus double stranded DNA by Benesi-Hildebrand plot analysis; assay type: nucleic-acid assay, Bos taurus; settings: for Kb: Bos taurus
HMEC-1 = assay: Antiproliferative activity against HMEC1 cells after 72 hrs by MTT assay; assay type: cell-based; settings: Homo sapiens, HMEC-1, 72 h
[16] = Selectivity index, ratio of IC50 for HMEC1 cells to IC50 for mouse L1210 cells; assay type: toxicity; settings: HMEC1 cells and L1210 cells, read-out: Ratio IC50
[17] = Selectivity index, ratio of IC50 for HMEC1 cells to IC50 for p53 deficient human HCT116 cells; assay type: toxicity; settings: HMEC1 cells and p53 deficient HCT116 cells, read-out: Ratio IC50
[18] = Selectivity index, ratio of IC50 for HMEC1 cells to IC50 for human K562 cells; assay type: toxicity; settings: HMEC1 cells and K562 cells, read-out: Ratio IC50
[19] = Selectivity index, ratio of IC50 for HMEC1 cells to IC50 for human HCT116 cells; assay type: toxicity; settings: HMEC1 cells and HCT116 cells, read-out: Ratio IC50
[20] = Selectivity index, ratio of IC50 for HMEC1 cells to IC50 for human K562/4 cells; assay type: toxicity; settings: HMEC1 cells and K562/4 cells, read-out: Ratio IC50
[21] = Selectivity index, ratio of IC50 for HMEC1 cells to IC50 for human HeLa cells; assay type: toxicity; settings: HMEC1 cells and HeLa cells, read-out: Ratio IC50
[22] = Selectivity index, ratio of IC50 for HMEC1 cells to IC50 for human CEM cells; assay type: toxicity; settings: HMEC1 cells and CEM cells, read-out: Ratio IC50
Calf thymus DNA [23] = assay: Binding affinity to calf thymus DNA by visible spectroscopic method; assay type: nucleic-acid assay; settings: Bos taurus

Structure (SMILES) | IC50 (K562) [nM] | IC50 (HCT-116 [5]) [nM] | IC50 (L1210) [nM] | IC50 (HeLa) [nM] | IC50 (CCRF-CEM) [nM] | IC50 (HCT-116 [11]) [nM] | IC50 [12] [nM] | also measured
Cc1cc(O)c2c3c4c(cc(O)c13)C(C)(C)C(=O)c1c(O)c(CN(CC(=O)O)CC(=O)O)c(O)c(c1-4)C2=O | 5500 | 600 | 31000 | 6500 | 9700 | 200 | 3100 | IC50 (HMEC-1): 34300 nM; Topoisomerase 1 inhibition (active/inactive) [4]: Active; selectivity ratio [16]: 2 to 50; selectivity ratio [17]: 2 to 50; selectivity ratio [18]: 2 to 50; selectivity ratio [19]: 2 to 50; selectivity ratio [20]: 2 to 50; selectivity ratio [21]: 2 to 50; selectivity ratio [22]: 2 to 50
Cc1cc(O)c2c3c4c(cc(O)c13)C(C)(C)C(=O)c1c(O)c(CN3CCOCC3)c(O)c(c1-4)C2=O | 8600 | 200 | 62000 | 11100 | 24200 | 300 | 300 | 
Cc1cc(O)c2c3c4c(cc(O)c13)C(C)(C)C(=O)c1c(O)c(CN3CCNCC3)c(O)c(c1-4)C2=O | 2500 | 1800 | 4200 | 5400 | 5600 | 4800 | 5800 | 
Cc1cc(O)c2c3c4c(cc(O)c13)C(C)(C)C(=O)c1c(O)c(CNCCN(C)C)c(O)c(c1-4)C2=O | 2200 | 700 | 1900 | 3900 | 1800 | 200 | 2200 | 
COc1cccc2c1C(=O)c1c(O)c3c(c(O)c1C2=O)C[C@@](O)(C(=O)CO)C[C@@H]3O[C@H]1C[C@H](N)[C@H](O)[C@H](C)O1 |  |  |  |  |  |  |  | Kb (Calf thymus DNA [23]): 2 ×10⁶ /M
CCOC(=O)[C@@H]1CCCN1Cc1c(O)c2c3c(c1O)C(=O)C(C)(C)c1cc(O)c4c(C)cc(O)c(c4c1-3)C2=O | 2200 | 1000 | 3500 | 1300 | 1200 | 700 | 1500 | IC50 (HMEC-1): 5900 nM; Topoisomerase 1 inhibition (active/inactive) [4]: Active; selectivity ratio [16]: 2 to 50; selectivity ratio [17]: 2 to 50; selectivity ratio [18]: 2 to 50; selectivity ratio [19]: 2 to 50; selectivity ratio [20]: 2 to 50; selectivity ratio [21]: 2 to 50; selectivity ratio [22]: 2 to 50
Cc1cc(O)c2c3c4c(cc(O)c13)C(C)(C)C(=O)c1c(O)c(CN3CCN(CCO)CC3)c(O)c(c1-4)C2=O | 2700 | 1300 | 3000 | 4800 | 5200 | 3700 | 4200 | 

Continued by falling IC50 (K562), values first:

IC50 (K562) [nM] | IC50 (HCT-116 [5]) [nM] | IC50 (L1210) [nM] | IC50 (HeLa) [nM] | IC50 (CCRF-CEM) [nM] | IC50 (HCT-116 [11]) [nM] | Structure (SMILES) | IC50 [12] [nM] | also measured
1500 | 1100 | 2900 | 2600 | 3400 | 3600 | Cc1cc(O)c2c3c4c(cc(O)c13)C(C)(C)C(=O)c1c(O)c(CN3CCC(N)C3)c(O)c(c1-4)C2=O (configuration not stated) | 4500 | 
1200 | 500 | 2300 | 3600 | 2100 | 3300 | Cc1cc(O)c2c3c4c(cc(O)c13)C(C)(C)C(=O)c1c(O)c(CN3CCN(C)CC3)c(O)c(c1-4)C2=O | 4500 | 
1200 | 100 | 14100 | 14200 | 7200 | 200 | Cc1cc(O)c2c3c4c(cc(O)c13)C(C)(C)C(=O)c1c(O)c(CN3CCCC3)c(O)c(c1-4)C2=O | 3400 | 
900 | 1700 | 800 | 800 | 800 | 1600 | CCN1CCN(Cc2c(O)c3c4c(c2O)C(=O)C(C)(C)c2cc(O)c5c(C)cc(O)c(c5c2-4)C3=O)CC1 | 3400 | 
700 | 900 | 3400 | 3600 | 2100 | 1000 | Cc1cc(O)c2c3c4c(cc(O)c13)C(C)(C)C(=O)c1c(O)c(CN3CCCC(O)C3)c(O)c(c1-4)C2=O (configuration not stated) | 900 | 
700 | 600 | 17000 | 28300 | 17100 | 1100 | Cc1cc(O)c2c3c4c(cc(O)c13)C(C)(C)C(=O)c1c(O)c(CN(C)C)c(O)c(c1-4)C2=O | 1000 | Activity (Calf thymus DNA [1]): Active; Activity (T-24 [2]): Active; IC50 (HMEC-1): 32600 nM; Activity (T-24 [3]): Active; Topoisomerase 1 inhibition (active/inactive) [4]: Active; selectivity ratio [16]: 2 to 50; Activity (T-24 [6]): Active; Activity (T-24 [8]): Active; IC50 (T-24 [9]): 4700 nM; selectivity ratio [17]: 2 to 50; Activity (T-24 [10]): Active; selectivity ratio [18]: 2 to 50; selectivity ratio [19]: 2 to 50; Activity (T-24 [13]): Active; selectivity ratio [20]: 2 to 50; Activity (T-24 [14]): Active; Kd (Calf thymus DNA [15]): 34000 nM; Kb (Calf thymus DNA [15]): 3 ×10⁴ /M
600 | 700 | 800 | 2600 | 2300 | 1200 | Cc1cc(O)c2c3c4c(cc(O)c13)C(C)(C)C(=O)c1c(O)c(CN3CCC(N)CC3)c(O)c(c1-4)C2=O | 4100 | Activity (Calf thymus DNA [1]): Active; Activity (T-24 [2]): Active; Activity (T-24 [3]): Active; Topoisomerase 1 inhibition (active/inactive) [4]: Active; Activity (T-24 [6]): Active; inhibition [7]: Active; Activity (T-24 [8]): Active; IC50 (T-24 [9]): 4400 nM; Activity (T-24 [10]): Active; Activity (T-24 [13]): Active; Activity (T-24 [14]): Active; Kd (Calf thymus DNA [15]): 8100 nM; Kb (Calf thymus DNA [15]): 1.2 ×10⁵ /M
500 | 300 | 8800 | 700 | 300 | 600 | Cc1cc(O)c2c3c4c(cc(O)c13)C(C)(C)C(=O)c1c(O)c(CNC(C)(C)C)c(O)c(c1-4)C2=O | 1600 | Activity (T-24 [2]): Active; IC50 (HMEC-1): 7800 nM; Activity (T-24 [3]): Active; Activity (T-24 [6]): Active; Activity (T-24 [8]): Active; IC50 (T-24 [9]): 1100 nM; selectivity ratio [17]: 2 to 50; Activity (T-24 [10]): Active; selectivity ratio [18]: 2 to 50; selectivity ratio [19]: 2 to 50; Activity (T-24 [13]): Active; selectivity ratio [20]: 2 to 50; selectivity ratio [21]: 2 to 50; selectivity ratio [22]: 2 to 50; Activity (T-24 [14]): Active
400 | 500 | > 250000 | > 250000 | 198000 | 1100 | CCN(CC)Cc1c(O)c2c3c(c1O)C(=O)C(C)(C)c1cc(O)c4c(C)cc(O)c(c4c1-3)C2=O | 300 | 
300 | 100 | 3400 | 800 | 900 | 300 | Cc1cc(O)c2c3c4c(cc(O)c13)C(C)(C)C(=O)c1c(O)c(CN3CCCCC3)c(O)c(c1-4)C2=O | 800 | 

From ChEMBL document CHEMBL4138182, “Aminomethylation of heliomycin: Preparation and anticancer characterization of the first series of semi-synthetic derivatives” (Eur J Med Chem, 2018)
